Test results published in ChEMBL document CHEMBL4024739, “Diversity-oriented sustainable synthesis of antimicrobial spiropyrrolidine/thiapyrrolizidine oxindole derivatives: New ligands for a metallo-β-lactamase from Klebsiella pneumonia” (2017).
≈ marks a conversion by molar mass, not a printed value.

What was measured:
Type in all cases: functional
Klebsiella pneumoniae [1] = experiment: Potency index, ratio of amphicillin MIC to compound MIC for Klebsiella pneumoniae ATCC 27736
Cryptococcus neoformans = experiment: Antifungal activity against Cryptococcus neoformans by spectrophotometric method
Candida parapsilosis = experiment: Antifungal activity against Candida parapsilosis ATCC 22019 by spectrophotometric method; details: Lodderomyces parapsilosis
Candida albicans = experiment: Antifungal activity against Candida albicans by spectrophotometric method
Klebsiella pneumoniae [2] = experiment: Potency index, ratio of gentamicin MIC to compound MIC for Klebsiella pneumoniae ATCC 27736
[3] = system: Trichophyton mentagrophytes; experiment: Antifungal activity against Trichophyton mentagrophytes by spectrophotometric method
Staphylococcus aureus = experiment: Antibacterial activity against Staphylococcus aureus ATCC 25923 by spectrophotometric method
Pseudomonas aeruginosa = experiment: Antibacterial activity against Pseudomonas aeruginosa ATCC BAA-427 by spectrophotometric method
Klebsiella pneumoniae [4] = experiment: Antibacterial activity against Klebsiella pneumoniae ATCC 27736 by spectrophotometric method
Sporothrix schenckii = experiment: Antifungal activity against Sporothrix schenckii by spectrophotometric method
Escherichia coli = experiment: Antibacterial activity against Escherichia coli ATCC 9637 by spectrophotometric method; details: W
Aspergillus fumigatus = experiment: Antifungal activity against Aspergillus fumigatus by spectrophotometric method

Row | Compound | Ratio (Klebsiella pneumoniae [1]) | MIC (Cryptococcus neoformans) [µg/mL] | MIC (Candida parapsilosis) [µg/mL] | MIC (Candida albicans) [µg/mL] | Ratio (Klebsiella pneumoniae [2]) | MIC [3] [µg/mL] | MIC (Staphylococcus aureus) [µg/mL] | MIC (Pseudomonas aeruginosa) [µg/mL] | MIC (Klebsiella pneumoniae [4]) [µg/mL] | MIC (Sporothrix schenckii) [µg/mL] | MIC (Escherichia coli) [µg/mL] | MIC (Aspergillus fumigatus) [µg/mL]
1 | N#CC1(C#N)[C@@H](c2ccc(Cl)c(Cl)c2)C2CSCN2[C@@]12C(=O)Nc1ccccc12 (some centres not stated) | 78 | > 50 | > 50 | > 50 | 156 | 50 (≈ 113 µM) | > 50 | > 50 | 0.005 (≈ 0.0113 µM) | > 50 | > 50 | > 50
2 | CCOC(=O)[C@]1(C#N)[C@@H](c2c(F)cccc2Cl)CN(C)[C@@]12C(=O)Nc1ccc(Cl)cc12 |  | 50 (≈ 108 µM) | 50 (≈ 108 µM) | 50 (≈ 108 µM) |  | 50 (≈ 108 µM) | > 50 | > 50 | 25 (≈ 54.1 µM) | 50 (≈ 108 µM) | > 50 | 50 (≈ 108 µM)
3 | GENTAMICIN |  |  |  |  |  |  | 0.39 | 0.78 | 0.78 |  | 0.78 | 
4 | CCOC(=O)[C@]1(C#N)[C@@H](c2ccc(Cl)c(Cl)c2)CN(C)[C@@]12C(=O)Nc1ccc(Cl)cc12 |  | > 50 | > 50 | > 50 |  | > 50 | > 50 | > 50 | 50 (≈ 104 µM) | > 50 | > 50 | > 50
5 | CCOC(=O)[C@]1(C#N)[C@@H](c2c(F)cccc2Cl)CN(C)[C@@]12C(=O)Nc1ccc([N+](=O)[O-])cc12 |  | 50 (≈ 106 µM) | 50 (≈ 106 µM) | 50 (≈ 106 µM) |  | > 50 | > 50 | > 50 | 50 (≈ 106 µM) | > 50 | > 50 | > 50
6 | CCOC(=O)[C@]1(C#N)[C@@H](c2ccc(Cl)cc2)CN(C)[C@@]12C(=O)Nc1c(C)cc(C)cc12 |  | 50 (≈ 114 µM) | 50 (≈ 114 µM) | 50 (≈ 114 µM) |  | 50 (≈ 114 µM) | 50 (≈ 114 µM) | > 50 | 1.56 (≈ 3.56 µM) | 50 (≈ 114 µM) | > 50 | 50 (≈ 114 µM)
7 | CCOC(=O)[C@]1(C#N)[C@@H](c2c(F)cccc2Cl)C2CSCN2[C@@]12C(=O)Nc1ccccc12 (some centres not stated) |  | > 50 | > 50 | > 50 |  | 50 (≈ 106 µM) | > 50 | > 50 | 0.045 (≈ 0.0954 µM) | > 50 | > 50 | > 50
8 | CCOC(=O)[C@]1(C#N)[C@@H](c2cccs2)C2CSCN2[C@@]12C(=O)Nc1ccccc12 (some centres not stated) |  | > 50 | > 50 | > 50 |  | 50 (≈ 117 µM) | > 50 | > 50 | 0.09 (≈ 0.211 µM) | > 50 | > 50 | > 50
9 | CC1(C)S[C@@H]2[C@H](NC(=O)[C@H](N)c3ccccc3)C(=O)N2[C@H]1C(=O)O [AMPICILLIN] |  |  |  |  |  |  | 0.19 (≈ 0.544 µM) | 50 (≈ 143 µM) | 0.39 (≈ 1.12 µM) |  | 50 (≈ 143 µM) | 
10 | CCOC(=O)[C@]1(C#N)[C@@H](c2c(F)cccc2Cl)CN(C)[C@@]12C(=O)Nc1c(C)cc(C)cc12 |  | 50 (≈ 110 µM) | 50 (≈ 110 µM) | 50 (≈ 110 µM) |  | 12.5 (≈ 27.4 µM) | 12.5 (≈ 27.4 µM) | > 50 | 3.12 (≈ 6.84 µM) | 25 (≈ 54.8 µM) | > 50 | 25 (≈ 54.8 µM)
11 | CCOC(=O)[C@]1(C#N)[C@@H](c2ccc(OC)cc2)CN(C)[C@@]12C(=O)Nc1c(C)cc(C)cc12 |  | > 50 | > 50 | > 50 |  | 50 (≈ 115 µM) | > 50 | > 50 | 25 (≈ 57.7 µM) | > 50 | > 50 | > 50
12 | N#CC1(C#N)[C@@H](c2cccc([N+](=O)[O-])c2)C2CSCN2[C@@]12C(=O)Nc1ccccc12 (some centres not stated) |  | > 50 | > 50 | > 50 |  | > 50 | > 50 | > 50 | 0.19 (≈ 0.455 µM) | > 50 | > 50 | > 50
13 | CCOC(=O)[C@]1(C#N)[C@@H](c2ccc(Cl)c(Cl)c2)CN(C)[C@@]12C(=O)Nc1c(C)cc(C)cc12 |  | > 50 | > 50 | > 50 |  | 50 (≈ 106 µM) | > 50 | > 50 | 6.25 (≈ 13.2 µM) | > 50 | > 50 | > 50
14 | CN1C[C@H](c2ccc(Cl)c(Cl)c2)C(C#N)(C#N)[C@]12C(=O)Nc1ccc(Cl)cc12 |  | > 50 | > 50 | > 50 |  | > 50 | > 50 | > 50 | 6.25 (≈ 14.5 µM) | 50 (≈ 116 µM) | > 50 | > 50
15 | OC(Cn1cncn1)(Cn1cncn1)c1ccc(F)cc1F [FLUCONAZOLE] |  | 0.5 (≈ 1.63 µM) | 1 (≈ 3.27 µM) | 1 (≈ 3.27 µM) |  | 1 (≈ 3.27 µM) |  |  |  | 2 (≈ 6.53 µM) |  | 2 (≈ 6.53 µM)
16 | C[C@@H]1[C@H](O)[C@@H](C)/C=C/C=C/C=C/C=C/C=C/C=C/C=C/[C@H](O[C@@H]2O[C@H](C)[C@@H](O)[C@H](N)[C@@H]2O)C[C@@H]2O[C@](O)(C[C@@H](O)C[C@@H](O)[C@H](O)CC[C@@H](O)C[C@@H](O)CC(=O)O[C@H]1C)C[C@H](O)[C@H]2C(=O)O [AMPHOTERICIN B] |  | 0.12 (≈ 0.13 µM) | 0.12 (≈ 0.13 µM) | 0.06 (≈ 0.0649 µM) |  | 0.12 (≈ 0.13 µM) |  |  |  | 0.12 (≈ 0.13 µM) |  | 0.5 (≈ 0.541 µM)
